This is an account of results in US12570957B2, “Isolated naive pluripotent stem cells and methods of generating same” (Yeda Research and Development Co. Ltd., priority 2013, dated 2026).

The test system of one assay is naive hESCs/hiPSCs. As to the kind of experiment: Substitution of p38 inhibitor in WIS-NHSM, OCT4-GFP expression. Particulars: used instead of SB203580 in WIS-NHSM. It is filed as cell-based, human.
For a further assay, the system named is naive cells. As to the kind of experiment: Pluripotency (Oct4-GFP) after passaging with DNA methylation or EED inhibitors. It is filed as cell-based, human and mouse. Particulars: Oct4-GFP reporter.
For a further assay, the system named is MBD3. Description: Western blot for MBD3 protein expression in V6.5 mouse ES cells after 4 days treatment. It is filed as cell-based. Particulars: 2i/LIF plus agent at 5 micromolar. An excerpt:
FIGS. 1O1A-101B are Western blot analyses showing expression of MBD3 (FIG. 101B) and of HSP90 (FIG. 101A) in v6.5 mouse ES cells after different treatments. V6.5 mouse ES cells were expanded for 4 days in the indicated conditions and subjected to Western blot analysis for MBD3 protein expression. Following are the abbreviations and concentrations of the indicated factors and agents. PBS=phosphate buffered saline; “LIF”=leukemia inhibitory factor, provided at a concentration of 20 nanograms/milliliter (ng/ml); KSR=knockout serum replacement; “2i/LIF”=small-molecule inhibitors CHIR99021 (CH, 3 M—Axon Medchem) and PD0325901 (PD, 1 M—TOCRIS), with 20 ng/ml LIF; “DMSO”=Dimethyl sulfoxide at a concentration of 0.1%; TGFRi (inhibitor of transforming growth factor receptor; SB431542 at 5 micromolar); PKC-i (inhibitor of protein kinase C; Go6983 at 5 micromolar).
V6.5 mouse ES cells were expanded for 4 days in various conditions in order to identify combination of factors which result in reduced MBD3 protein levels.
On the technique in general: In western blotting, separated proteins are transferred to a membrane and probed.

Another assay has as its target PKCα (Homo sapiens, UniProt P17252). Particulars: read-out: IC50 for PKCu; cited from earlier work.
Another assay addresses PKCβ (Homo sapiens, UniProt P05771). Particulars: read-out: IC50 for PKC0; cited from earlier work.
The target of a further assay is PKCγ (Homo sapiens, UniProt P05129). As to conditions: read-out: IC50 for PKCy; cited from earlier work.
The next assay has as its target PKCδ (Homo sapiens, UniProt Q05655). Particulars: read-out: IC50 for PKC6; cited from earlier work.
The target of the next assay is T1, PKCζ (Homo sapiens, UniProt Q05513).
T1 sequence (Q05513 1-592): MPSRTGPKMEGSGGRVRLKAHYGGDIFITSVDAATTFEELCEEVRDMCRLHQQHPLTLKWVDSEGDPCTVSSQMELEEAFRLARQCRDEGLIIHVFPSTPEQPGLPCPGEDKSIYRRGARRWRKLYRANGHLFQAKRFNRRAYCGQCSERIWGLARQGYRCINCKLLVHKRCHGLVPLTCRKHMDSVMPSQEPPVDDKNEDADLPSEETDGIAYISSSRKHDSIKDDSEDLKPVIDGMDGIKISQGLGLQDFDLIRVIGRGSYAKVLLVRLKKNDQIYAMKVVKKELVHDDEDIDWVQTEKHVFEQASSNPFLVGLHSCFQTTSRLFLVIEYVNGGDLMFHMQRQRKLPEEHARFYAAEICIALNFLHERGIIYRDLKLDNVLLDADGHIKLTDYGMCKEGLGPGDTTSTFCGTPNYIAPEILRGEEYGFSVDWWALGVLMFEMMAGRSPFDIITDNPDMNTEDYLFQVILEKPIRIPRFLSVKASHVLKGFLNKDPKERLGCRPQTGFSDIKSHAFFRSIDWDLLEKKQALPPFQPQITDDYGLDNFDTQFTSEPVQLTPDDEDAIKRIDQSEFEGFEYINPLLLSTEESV
Particulars: read-out: IC50 for PKC; cited from earlier work.

The next assay addresses T2, PKCμ (Homo sapiens, UniProt Q15139).
T2 sequence (Q15139 1-912): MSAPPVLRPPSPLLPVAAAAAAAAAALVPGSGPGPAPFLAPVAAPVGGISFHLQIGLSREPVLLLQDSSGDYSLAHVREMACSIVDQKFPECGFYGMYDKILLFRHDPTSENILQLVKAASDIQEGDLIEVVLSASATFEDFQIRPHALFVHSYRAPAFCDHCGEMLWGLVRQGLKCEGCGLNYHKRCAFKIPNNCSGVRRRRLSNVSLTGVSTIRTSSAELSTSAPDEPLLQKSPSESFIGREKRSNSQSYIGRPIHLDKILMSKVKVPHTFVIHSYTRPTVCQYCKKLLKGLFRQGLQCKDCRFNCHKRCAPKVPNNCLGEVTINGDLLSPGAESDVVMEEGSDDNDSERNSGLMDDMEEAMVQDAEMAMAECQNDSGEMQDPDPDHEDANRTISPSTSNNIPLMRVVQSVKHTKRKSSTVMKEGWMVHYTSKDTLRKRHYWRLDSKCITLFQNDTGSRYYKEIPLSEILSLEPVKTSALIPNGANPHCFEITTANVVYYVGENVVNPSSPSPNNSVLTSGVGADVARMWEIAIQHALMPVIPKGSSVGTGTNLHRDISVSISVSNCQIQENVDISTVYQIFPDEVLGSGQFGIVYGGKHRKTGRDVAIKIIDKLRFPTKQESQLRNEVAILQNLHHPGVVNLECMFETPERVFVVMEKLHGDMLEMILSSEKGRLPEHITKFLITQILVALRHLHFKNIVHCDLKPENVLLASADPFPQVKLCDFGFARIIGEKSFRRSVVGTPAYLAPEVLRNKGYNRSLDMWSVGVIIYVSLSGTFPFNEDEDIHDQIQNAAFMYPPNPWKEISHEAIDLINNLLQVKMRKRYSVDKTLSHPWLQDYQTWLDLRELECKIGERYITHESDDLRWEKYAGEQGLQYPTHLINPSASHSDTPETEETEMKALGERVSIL
As to conditions: read-out: IC50 for PKCp; cited from earlier work.

A further assay concerns naive hPSCs. As to the kind of experiment: Single-cell cloning efficiency, naive cells. It is filed as cell-based, human. Particulars: in the presence of ROCK inhibitor. An excerpt:
(§1) FIGS. 74A-74D depict enhanced growth rate and single cell cloning efficiency of human naive pluripotent stem cells. FIG. 74A—Population doubling time of various mouse and human pluripotent stem cell lines. After plating each cell lines in replicates, cells were harvested at days 2,4 and 6 and there growth was normalized by counting cell number at each stage and calculating growth rate relative to the number of cells harvested and counted at day 2 (rather than number of plated cells to account for variability in survival after plating). Error bars represent s.d., and P values represent t-test of average from primed hESC/hiPSC lines to average of naive hESC/hiPSC lines. FIG. 74B—Single-cell cloning efficiency of different pluripotent stem cell lines as determined by the number of wells containing NANOG+ colonies 6 days after plating (with or without ROCK inhibitor as indicated in the figure). * indicates student's t-test P value <0.01 between the average of the compared groups. Error bars indicate s.d. […] Single-cell cloning efficiency of different pluripotent stem cell lines as determined by the number of wells containing Nanog+ colonies 6 days after plating (without using ROCK inhibitor as indicated in the figure). * indicates student's t-test P value <0.01 between the average of the compared groups. […]

The test system of a further assay is primed hESCs and hiPSCs. Description: Single-cell cloning efficiency, primed cells. It is filed as cell-based, human. Particulars: in the presence of ROCK inhibitor.
From the text: as §1

The next assay has as its target T3, Mbd3 binding to Chd4 (Homo sapiens, UniProt O95983).
T3 construct: expressed in transfected cells; host or cells: 293T cells
T3 sequence (O95983 1-291): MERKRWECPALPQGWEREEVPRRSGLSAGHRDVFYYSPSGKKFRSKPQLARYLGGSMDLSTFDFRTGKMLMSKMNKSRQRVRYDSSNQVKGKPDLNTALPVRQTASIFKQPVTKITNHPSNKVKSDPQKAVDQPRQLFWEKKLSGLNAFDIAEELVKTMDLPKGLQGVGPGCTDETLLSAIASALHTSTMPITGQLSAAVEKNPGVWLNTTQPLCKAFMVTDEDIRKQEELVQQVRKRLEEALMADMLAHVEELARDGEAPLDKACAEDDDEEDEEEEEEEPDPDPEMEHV
As to the kind of experiment: Co-immunoprecipitation of Flag-Mbd3 interacting proteins in 293T cells. As to conditions: Flag-Mbd3 IP. It counts as cell-based. An excerpt:
293T cells were transfected with both with Flag-Mbd3 (WT) and P66a-CC (SEQ ID NO:71; GenBank Accession NO. NM_017660.3) or a control vector (mCherry), Mbd3 15 interacting proteins were pulled down by immunoprecipitation (IP) using Flag-magnetic beads.
The present inventors overexpressed MBD3-WT (SEQ ID NO: 112) and the HA-tagged p66u-CC in 293T cells, and further show in a co-immunoprecipitation for anti-Mbd3 pulldown, that the presence of p66u inhibits MBD3 binding and recruitment to CHD4 (FIG. 93).

Sequence of PKCδ (Q05655 whole entry): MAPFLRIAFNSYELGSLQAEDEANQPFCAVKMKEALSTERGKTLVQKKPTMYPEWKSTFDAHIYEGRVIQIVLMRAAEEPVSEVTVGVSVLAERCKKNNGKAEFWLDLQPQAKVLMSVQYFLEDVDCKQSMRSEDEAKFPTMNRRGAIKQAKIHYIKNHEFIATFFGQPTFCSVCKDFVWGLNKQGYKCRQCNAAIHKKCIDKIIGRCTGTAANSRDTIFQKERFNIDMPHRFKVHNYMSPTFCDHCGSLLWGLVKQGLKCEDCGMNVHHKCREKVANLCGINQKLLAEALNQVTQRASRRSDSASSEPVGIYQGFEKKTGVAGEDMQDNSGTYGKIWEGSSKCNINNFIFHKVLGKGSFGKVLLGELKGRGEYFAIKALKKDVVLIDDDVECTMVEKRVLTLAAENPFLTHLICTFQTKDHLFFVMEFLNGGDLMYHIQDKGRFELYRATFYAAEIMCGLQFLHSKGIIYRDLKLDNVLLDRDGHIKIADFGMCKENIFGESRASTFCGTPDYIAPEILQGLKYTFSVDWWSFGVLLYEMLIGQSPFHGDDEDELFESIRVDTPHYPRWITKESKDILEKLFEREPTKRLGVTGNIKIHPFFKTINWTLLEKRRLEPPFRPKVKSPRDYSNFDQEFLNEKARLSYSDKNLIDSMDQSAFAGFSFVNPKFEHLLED
Sequence of PKCβ (P05771 whole entry, species assumed): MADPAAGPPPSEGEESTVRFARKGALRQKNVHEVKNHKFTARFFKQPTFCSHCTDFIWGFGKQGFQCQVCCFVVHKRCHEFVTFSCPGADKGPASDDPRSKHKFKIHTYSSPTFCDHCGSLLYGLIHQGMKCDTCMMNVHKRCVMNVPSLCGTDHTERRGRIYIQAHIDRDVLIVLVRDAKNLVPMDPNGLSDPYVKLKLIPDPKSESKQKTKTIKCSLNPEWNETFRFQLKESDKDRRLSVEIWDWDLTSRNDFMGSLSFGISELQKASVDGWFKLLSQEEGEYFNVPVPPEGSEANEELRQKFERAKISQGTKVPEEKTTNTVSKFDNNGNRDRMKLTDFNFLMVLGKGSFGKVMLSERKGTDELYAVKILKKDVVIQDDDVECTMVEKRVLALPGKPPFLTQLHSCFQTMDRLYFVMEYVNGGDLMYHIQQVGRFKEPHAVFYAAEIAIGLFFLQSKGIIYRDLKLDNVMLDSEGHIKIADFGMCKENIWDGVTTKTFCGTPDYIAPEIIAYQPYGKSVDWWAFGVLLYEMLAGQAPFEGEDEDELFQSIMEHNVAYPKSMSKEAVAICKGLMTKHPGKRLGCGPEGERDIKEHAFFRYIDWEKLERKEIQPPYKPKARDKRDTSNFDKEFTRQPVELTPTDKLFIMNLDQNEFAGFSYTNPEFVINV

As to `Cc1ccc(-n2nc(C(C)(C)C)cc2NC(=O)Nc2ccc(OCCN3CCOCC3)c3ccccc23)cc1` [BIRB796], the “change in OCT4-GFP expression” value in the assay on naive hESCs/hiPSCs was “without any change”.
`Nc1ncn([C@H]2C[C@H](O)[C@@H](CO)O2)c(=O)n1` [Condition 5d-AZA]: the “pluripotency after passaging in presence of inhibitor” value with naive cells is “retain their pluripotency”.
Still for that read-out and setting: then `Nc1nccc2c1ncn2C1C=C(CO)C(O)C1O` (stereo not shown) [DzNEP], with “retain their pluripotency”.
As usually defined, the IC50 is the concentration at which inhibition is half-maximal. Consider `COc1ccc2c(c1)c(C1=C(c3c[nH]c4ccccc34)C(=O)NC1=O)cn2CCCN(C)C` [Go6983], for which the results for the MBD3 protein levels result in the assay with MBD3 and in the assay on MBD3 (listed as PKC inhibitor) were “significant depletion” and “significant reduction”, respectively. The IC50 at PKCα is 7 nM; at PKCβ, 7 nM; at PKCγ, 6 nM; on PKCδ it was 10 nM; at PKCζ, 60 nM; at PKCμ it was 20000 nM.
On to `C[C@@H](N)[C@H]1CC[C@H](C(=O)Nc2ccncc2)CC1` [ROCK inhibitor, Y-27632], for which the “single cell cloning efficiency” value with naive hPSCs is reported as “up to 88%”; in the assay on primed hESCs and hiPSCs it was “up to 22%”.
In the case of `Oc1ccc(-c2nc(-c3ccncc3)c(-c3ccc(F)cc3)[nH]2)cc1` [SB202190], the “change in OCT4-GFP expression” value in the assay with naive hESCs/hiPSCs is “without any change”.
With `NC(=O)c1ccc(-c2nc(-c3ccc4c(c3)OCO4)c(-c3ccccn3)[nH]2)cc1` [SB431542], in the assay with MBD3, the MBD3 protein levels result is “did not affect”.
Turning to “P66a-CC: P66 alpha coiled-coil domain, SEQ ID NO:114, expressed by transfection (PEERERMIKQLKEELRLEEAKLVLLKKLRQSQIQKEATAQK; (1)..(41) P66 alpha coiled-coil domain; listed as Homo sapiens) [Condition P66a-CC]”, the “Chd4 interaction with Mbd3” value with Mbd3 binding to Chd4 was “specific loss of Chd4 interaction with Mbd3”.
